Measurements published in doi:10.1101/2021.10.07.463234v2 (biorxiv, 2021).
Counter-ions that a name gives are not always drawn.

These compounds were tested against SARS-CoV-2 Mac1 (Severe acute respiratory syndrome coronavirus 2, UniProt P0DTD1) (assay: biochemical). Details: 100 µM; inhibitor.
With `Cc1ccc(C(=O)c2ccc(CC(=O)O)n2C)cc1` [Tolmetin Sodium] the “%inhibition” value was 0.1982%.
In the case of `Cc1ccc(C(=O)c2ccc(CC(=O)O)n2C)cc1` [Tolmetin], the “%inhibition” value is reported as 4.72%.
For `Cn1c(=O)cc(N2CCC[C@@H](N)C2)n(Cc2cc(F)ccc2C#N)c1=O` [Trelagliptin succinate], the “%inhibition” value was 24.59%.
For `Cn1c(=O)cc(N2CCC[C@@H](N)C2)n(Cc2cc(F)ccc2C#N)c1=O` [Trelagliptin], the “%inhibition” value was 0%.
For `CN1[C@@H]2CC[C@H]1C[C@@H](OC(=O)c1c[nH]c3ccccc13)C2` [Tropisetron HCl], the “%inhibition” value was 30.45%.
With `CN1[C@@H]2CC[C@H]1C[C@@H](OC(=O)c1c[nH]c3ccccc13)C2` [Tropisetron] the “%inhibition” value was 6.575%.
In the case of `CCCC(CCC)C(=O)O` [Valproic acid sodium salt (Sodium valproate)], the “%inhibition” value is reported as 16.22%.
With `CCCC(CCC)C(=O)O` [Valproic acid] the “%inhibition” value was 0%.

Same assay, conditions: read-out: %inhibition
`CCCCNC(=O)NS(=O)(=O)c1ccc(C)cc1` [Tolbutamide] was tested, and the inhibition at 100 µM was 0%.
In the case of `Cc1ccc(C(=O)c2cc(O)c(O)c([N+](=O)[O-])c2)cc1` [Tolcapone], the inhibition at 100 µM is reported as 0%.
Work on `Cc1c(Cl)cccc1Nc1ccccc1C(=O)O` [Tolfenamic Acid] yielded an inhibition at 100 µM of 16.4%.
Work on `Cc1cccc(N(C)C(=S)Oc2ccc3ccccc3c2)c1` [Tolnaftate] yielded an inhibition at 100 µM of 0%.
`Cc1ccc(C(=O)C(C)CN2CCCCC2)cc1` (centres unmarked) [Tolperisone HCl] was tested, and the inhibition at 100 µM was 8.81%.
`Cc1ccc(O)c([C@H](CCN(C(C)C)C(C)C)c2ccccc2)c1` [Tolterodine tartrate] showed an inhibition at 100 µM of 34.1%.
Work on `Cc1cc(-n2c(=O)[nH]c(=O)n(C)c2=O)ccc1Oc1ccc(SC(F)(F)F)cc1` [Toltrazuril] yielded an inhibition at 100 µM of 0%.
Compound `Cc1ccccc1C(=O)Nc1ccc(C(=O)N2CCCC(O)c3cc(Cl)ccc32)c(C)c1` (centres unmarked) [Tolvaptan] has an inhibition at 100 µM of 10.6%.
With `CC1(C)O[C@@H]2[C@@H](CO[C@@]3(COS(N)(=O)=O)OC(C)(C)O[C@@H]23)O1` [Topiramate] the inhibition at 100 µM was 0%.
`N#Cc1cc(-c2n[nH]c(-c3ccncc3)n2)ccn1` [Topiroxostat] gave an inhibition at 100 µM of 0%.
Compound `CC[C@@]1(O)C(=O)OCc2c1cc1n(c2=O)Cc2cc3c(CN(C)C)c(O)ccc3nc2-1` [Topotecan HCl] has an inhibition at 100 µM of 24.2%.
`CN(C)CCOc1ccc(/C(=C(/CCCl)c2ccccc2)c2ccccc2)cc1` [Toremifene Citrate] was tested, and the inhibition at 100 µM was 21.7%.
Compound `Cc1cccc(Nc2ccncc2S(=O)(=O)NC(=O)NC(C)C)c1` [Torsemide] has an inhibition at 100 µM of 15.1%.
With `Cc1cc(Nc2cc(N3CCN(C)CC3)nc(Sc3ccc(NC(=O)C4CC4)cc3)n2)n[nH]1` [Tozasertib (VX-680, MK-0457)] the inhibition at 100 µM was 33.2%.
Compound `CC(=O)Nc1cccc(-n2c(=O)n(C3CC3)c(=O)c3c(Nc4ccc(I)cc4F)n(C)c(=O)c(C)c32)c1` [Trametinib (GSK1120212)] has an inhibition at 100 µM of 3.49%.
`COc1ccc(/C=C/C(=O)Nc2ccccc2C(=O)O)cc1OC` [Tranilast] was tested, and the inhibition at 100 µM was 0%.
Work on `N[C@H]1C[C@@H]1c1ccccc1` [Tranylcypromine (2-PCPA) HCl] yielded an inhibition at 100 µM of 0%.
In the case of `CC(C)OC(=O)CCC/C=C\C[C@@H]1[C@@H](/C=C/[C@@H](O)COc2cccc(C(F)(F)F)c2)[C@H](O)C[C@@H]1O` [Travoprost], the inhibition at 100 µM is reported as 0%.
Compound `CC1=C(/C=C/C(C)=C/C=C/C(C)=C/C(=O)O)C(C)(C)CCC1` [Tretinoin] has an inhibition at 100 µM of 0%.
With `CC(=O)OCC(COC(C)=O)OC(C)=O` [Triacetin] the inhibition at 100 µM was 3.58%.
Work on `CC1(C)O[C@@H]2C[C@H]3[C@@H]4CCC5=CC(=O)C=C[C@]5(C)[C@@]4(F)[C@@H](O)C[C@]3(C)[C@]2(C(=O)CO)O1` [Triamcinolone Acetonide] yielded an inhibition at 100 µM of 0%.
For `C[C@]12C=CC(=O)C=C1CC[C@H]1[C@@H]3C[C@@H](O)[C@](O)(C(=O)CO)[C@@]3(C)C[C@H](O)[C@@]12F` [Triamcinolone], the inhibition at 100 µM was 16.5%.
`Nc1nc(N)c2nc(-c3ccccc3)c(N)nc2n1` [Triamterene] was tested, and the inhibition at 100 µM was 4.22%.
`COc1cc(C(=O)NCc2ccc(OCCN(C)C)cc2)cc(OC)c1OC` [Tribenzagan Hydrochloride] showed an inhibition at 100 µM of 0%.
For `NS(=O)(=O)c1cc2c(cc1Cl)NC(C(Cl)Cl)NS2(=O)=O` (centres unmarked) [Trichlormethiazide], the inhibition at 100 µM was 0%.
`CSc1nc2cc(Cl)c(Oc3cccc(Cl)c3Cl)cc2[nH]1` [Triclabendazole] showed an inhibition at 100 µM of 20.5%.
In the case of `Oc1cc(Cl)ccc1Oc1ccc(Cl)cc1Cl` [Triclosan], the inhibition at 100 µM is reported as 0%.
`CN1CCN(CCCN2c3ccccc3Sc3ccc(C(F)(F)F)cc32)CC1` [Trifluoperazine 2HCl] was tested, and the inhibition at 100 µM was 0%.
Compound `O=c1[nH]c(=O)n([C@H]2C[C@H](O)[C@@H](CO)O2)cc1C(F)(F)F` [Trifluridine] has an inhibition at 100 µM of 0%.
Work on `CC(=O)Oc1cc(C(F)(F)F)ccc1C(=O)O` [Triflusal] yielded an inhibition at 100 µM of 5.82%.
With `OC(CCN1CCCCC1)(c1ccccc1)C1CCCCC1` (centres unmarked) [Trihexyphenidyl hydrochloride] the inhibition at 100 µM was 2.89%.
`C[C@]12CC[C@H]3[C@@H](CC[C@@]45O[C@@H]4C(O)=C(C#N)C[C@]35C)[C@@H]1CC[C@@H]2O` [Trilostane] was tested, and the inhibition at 100 µM was 0%.
Compound `CCC(COC(=O)c1cc(OC)c(OC)c(OC)c1)(c1ccccc1)N(C)C` (centres unmarked) [Trimebutine maleate] has an inhibition at 100 µM of 0%.
`COc1ccc(CN2CCNCC2)c(OC)c1OC` [Trimetazidine dihydrochloride] showed an inhibition at 100 µM of 0%.
`CN1C(=O)OC(C)(C)C1=O` [Trimethadione] showed an inhibition at 100 µM of 0%.
With `COc1cc(Cc2cnc(N)nc2N)cc(OC)c1OC` [Trimethoprim] the inhibition at 100 µM was 4.05%.
In the case of `CC(CN(C)C)CN1c2ccccc2CCc2ccccc21` (centres unmarked) [Trimipramine Maleate], the inhibition at 100 µM is reported as 0%.
With `CN(C)CCN(Cc1ccccc1)c1ccccn1` [Tripelennamine HCl] the inhibition at 100 µM was 0%.
`Cc1ccc(/C(=C\CN2CCCC2)c2ccccn2)cc1` [Triprolidine Hydrochloride] gave an inhibition at 100 µM of 2.14%.
For `Cc1c(C)c2c(c(C)c1O)CCC(C)(COc1ccc(CC3SC(=O)NC3=O)cc1)O2` (centres unmarked) [Troglitazone (CS-045)], the inhibition at 100 µM was 5.13%.
`NC(CO)(CO)CO` [Trometamol] showed an inhibition at 100 µM of 3.46%.
Compound `O=C(O[C@H]1C[C@H]2CC[C@@H](C1)[N+]21CCCC1)C(O)(c1ccccc1)c1ccccc1` [Trospium chloride] has an inhibition at 100 µM of 14.5%.
Work on `C[C@@H]1O[C@@H](OC[C@H]2O[C@@H](Oc3c(-c4ccc(OCCO)c(OCCO)c4)oc4cc(OCCO)cc(O)c4c3=O)[C@H](O)[C@@H](O)[C@@H]2O)[C@H](O)[C@H](O)[C@H]1O` [Troxerutin] yielded an inhibition at 100 µM of 0%.
In the case of `COc1cc(C(=O)NC2CCCNC2)cc(OC)c1OC` (centres unmarked) [Troxipide], the inhibition at 100 µM is reported as 19.2%.
`CC[C@H]1OC(=O)C[C@@H](O)[C@H](C)[C@@H](O[C@@H]2O[C@H](C)[C@@H](O[C@H]3C[C@@](C)(O)[C@@H](O)[C@H](C)O3)[C@H](N(C)C)[C@H]2O)[C@@H](CC=O)C[C@@H](C)C(=O)/C=C/C(C)=C/[C@@H]1CO[C@@H]1O[C@H](C)[C@@H](O)[C@@H](OC)[C@H]1OC` [Tylosin tartrate] gave an inhibition at 100 µM of 0%.
With `CCCCOC(=O)c1ccccc1Nc1cccc(C(F)(F)F)c1` [Ufenamate] the inhibition at 100 µM was 7.76%.
For `CC(=O)[C@@]1(O)CC[C@H]2[C@@H]3CCC4=CC(=O)CCC4=C3[C@@H](c3ccc(N(C)C)cc3)C[C@@]21C` [Ulipristal], the inhibition at 100 µM was 0.321%.
`CC(C)Nc1cc(-c2c[nH]c(C(=O)N[C@H](CO)c3cccc(Cl)c3)c2)c(Cl)cn1` [Ulixertinib (BVD-523, VRT752271)] was tested, and the inhibition at 100 µM was 24.8%.
With `OC(c1ccccc1)(c1ccccc1)C12CC[N+](CCOCc3ccccc3)(CC1)CC2` [Umeclidinium bromide] the inhibition at 100 µM was 0%.
`Cn1ncc(Cl)c1-c1cc(C(=O)N[C@H](CN)Cc2ccc(F)c(F)c2)oc1Cl` [Uprosertib (GSK2141795)] showed an inhibition at 100 µM of 0%.
Compound `O=c1cc[nH]c(=O)[nH]1` [Uracil] has an inhibition at 100 µM of 0%.
`COc1ccccc1N1CCN(CCCNc2cc(=O)n(C)c(=O)n2C)CC1` [Urapidil HCl] was tested, and the inhibition at 100 µM was 2.64%.
With `CCOC(N)=O` [Urethane] the inhibition at 100 µM was 0%.
`O=c1ccn([C@@H]2O[C@H](CO)[C@@H](O)[C@H]2O)c(=O)[nH]1` [Uridine] showed an inhibition at 100 µM of 0%.
`C[C@H](CCC(=O)O)[C@H]1CC[C@H]2[C@@H]3[C@@H](O)C[C@@H]4C[C@H](O)CC[C@]4(C)[C@H]3CC[C@]12C` [Ursodiol] gave an inhibition at 100 µM of 0%.
`Cc1ccc(NC(=O)C2(c3ccc4c(c3)OC(F)(F)O4)CC2)nc1-c1cccc(C(=O)O)c1` [VX-809 (Lumacaftor)] was tested, and the inhibition at 100 µM was 0%.
Compound `CC(C)[C@H](N)C(=O)OCCOCn1cnc2c(=O)nc(N)[nH]c21` [Valaciclovir HCl] has an inhibition at 100 µM of 39.4%.
For `COc1cc2c(cc1OC)[C@H]1C[C@@H](OC(=O)[C@@H](N)C(C)C)[C@H](CC(C)C)CN1CC2` [Valbenazine tosylate], the inhibition at 100 µM was 13.2%.
Work on `Cc1onc(-c2ccccc2)c1-c1ccc(S(N)(=O)=O)cc1` [Valdecoxib] yielded an inhibition at 100 µM of 9.12%.
Compound `CC(C)[C@H](N)C(=O)OCC(CO)OCn1cnc2c(=O)nc(N)[nH]c21` (some centres unmarked) [Valganciclovir HCl] has an inhibition at 100 µM of 0%.
In the case of `C=C[C@]1(C)C[C@@H](OC(=O)CSC(C)(C)CNC(=O)[C@H](N)C(C)C)[C@]2(C)[C@H](C)CC[C@]3(CCC(=O)[C@H]32)[C@@H](C)[C@@H]1O` [Valnemulin HCl], the inhibition at 100 µM is reported as 23.1%.
`CCCC(CCC)C(N)=O` [Valpromide] showed an inhibition at 100 µM of 13.2%.
In the case of `CCCCC(=O)N(Cc1ccc(-c2ccccc2-c2nnn[nH]2)cc1)[C@H](C(=O)O)C(C)C` [Valsartan], the inhibition at 100 µM is reported as 31.1%.
In the case of `CN[C@H](CC(C)C)C(=O)N[C@H]1C(=O)N[C@@H](CC(N)=O)C(=O)N[C@H]2C(=O)N[C@H]3C(=O)N[C@H](C(=O)N[C@H](C(=O)O)c4cc(O)cc(O)c4-c4cc3ccc4O)[C@H](O)c3ccc(c(Cl)c3)Oc3cc2cc(c3O[C@@H]2O[C@H](CO)[C@@H](O)[C@H](O)[C@H]2O[C@H]2C[C@](C)(N)[C@H](O)[C@H](C)O2)Oc2ccc(cc2Cl)[C@H]1O` [Vancomycin HCl], the inhibition at 100 µM is reported as 0%.
Work on `COc1cc2/c(=N/c3ccc(Br)cc3F)nc[nH]c2cc1OCC1CCN(C)CC1` [Vandetanib (ZD6474)] yielded an inhibition at 100 µM of 35.2%.
Work on `CCCc1nc(C)c2c(O)nc(-c3cc(S(=O)(=O)N4CCN(CC)CC4)ccc3OCC)nn12` [Vardenafil HCl Trihydrate] yielded an inhibition at 100 µM of 3.9%.
